Assay results reported in US10144706B2 (BRISTOL-MYERS SQUIBB COMPANY, priority 2016, dated 2018).
Like-named read-outs stand apart in the source and are kept apart here.

Molecular target: T1, PD-1/PD-L1 interaction (PD-1-Ig / PD-L1-His) (Homo sapiens, UniProt Q9NZQ7)
T1 construct: hPDL1(18-239)-TVMV-His; TVMV protease site linker (C); made in house; host or cells: HEK293T
Experiment: PD-1/PD-L1 Homogenous Time-Resolved Fluorescence (HTRF) binding assay
Settings: PD-L1-His 10 nM, PD-1-Ig 20 nM, read-out: Range or IC50
Outline: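 HTRF detection used 1 nM europium-cryptate anti-Ig and 20 nM APC anti-His. Compounds first saw 10 nM PD-L1-His for 15 min, and 20 nM PD-1-Ig was then added for another 15 min. Buffer was dPBS plus 0.1% BSA and 0.05% Tween-20. All concentrations are final.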

T1 sequence (Q9NZQ7 with tags, fused parts or gaps): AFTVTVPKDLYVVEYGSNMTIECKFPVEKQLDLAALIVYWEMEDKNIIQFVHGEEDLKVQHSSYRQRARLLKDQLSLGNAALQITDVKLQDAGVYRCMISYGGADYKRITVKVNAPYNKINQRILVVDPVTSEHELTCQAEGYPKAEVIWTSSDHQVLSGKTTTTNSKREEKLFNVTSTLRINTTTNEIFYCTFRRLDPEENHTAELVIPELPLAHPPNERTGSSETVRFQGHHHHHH

IC50 (IC50 range class) | IC50 (numeric IC50) | Structure (SMILES)
0.04 to 20 nM | – | Cc1c(COc2cc(OCc3cncc(C#N)c3)c(CN[C@@H](CC#N)C(=O)O)cc2Cl)cccc1-c1cccc(COc2cc(OCc3cncc(C#N)c3)c(CN[C@@H](CC#N)C(=O)O)cc2Cl)c1C [Example 40470]
0.04 to 20 nM | – | Cc1c(COc2cc(OCc3cncc(C#N)c3)c(CNC[C@H](C)C(=O)O)cc2Cl)cccc1-c1cccc(COc2cc(OCc3cncc(C#N)c3)c(CNC[C@H](C)C(=O)O)cc2Cl)c1C [Example 40500]
0.04 to 20 nM | – | COC(=O)CC(O)CNCc1cc(Cl)c(OCc2cccc(-c3cccc(COc4cc(OCc5cncc(C#N)c5)c(CNCC(O)CC(=O)OC)cc4Cl)c3C)c2C)cc1OCc1cncc(C#N)c1 (stereo not shown) [Example 40710]
20.1 to 90 nM | – | COC(=O)CC(O)CNCc1cc(Cl)c(OCc2cccc(-c3cccc(COc4cc(OCc5cncc(C#N)c5)c(CNC/C=C\C(=O)O)cc4Cl)c3C)c2C)cc1OCc1cncc(C#N)c1 (stereo not shown) [Example 40720]
– | 22 nM | Cc1c(COc2cc(OCc3cncc(C#N)c3)c(CNC/C=C\C(=O)O)cc2Cl)cccc1-c1cccc(COc2cc(OCc3cncc(C#N)c3)c(CNC/C=C\C(=O)O)cc2Cl)c1C [Example 40730]
0.04 to 20 nM | – | Cc1c(COc2cc(OCc3cncc(C#N)c3)c(CN[C@@H](CCO)C(=O)O)cc2Cl)cccc1-c1cccc(COc2cc(OCc3cncc(C#N)c3)c(CN[C@@H](CCO)C(=O)O)cc2Cl)c1C [Example 40740]
0.04 to 20 nM | – | CCCN(Cc1cc(Cl)c(OCc2cccc(-c3cccc(COc4cc(OCc5cncc(C#N)c5)c(CN(CCC)[C@@H](CCO)C(=O)O)cc4Cl)c3C)c2C)cc1OCc1cncc(C#N)c1)[C@@H](CCO)C(=O)O [Example 40750]
0.04 to 20 nM | – | Cc1c(COc2cc(OCc3cncc(C#N)c3)c(CN(C)[C@@H](CCO)C(=O)O)cc2Cl)cccc1-c1cccc(COc2cc(OCc3cncc(C#N)c3)c(CN(C)[C@@H](CCO)C(=O)O)cc2Cl)c1C [Example 40760]
– | 0.04 nM | Cc1c(COc2cc(OCc3cncc(C#N)c3)c(CN[C@@H](CCO)C(=O)O)cc2Cl)cccc1-c1cccc(COc2cc(OCc3cncc(C#N)c3)c(CN[C@H](CCO)C(=O)O)cc2Cl)c1C [Example 40770]
0.04 to 20 nM | – | COCCC(NCc1cc(Cl)c(OCc2cccc(-c3cccc(COc4cc(OCc5cncc(C#N)c5)c(CNC(CCOC)C(=O)O)cc4Cl)c3C)c2C)cc1OCc1cncc(C#N)c1)C(=O)O (stereo not shown) [Example 40780]
0.04 to 20 nM | – | CCN(Cc1cc(Cl)c(OCc2cccc(-c3cccc(COc4cc(OCc5cncc(C#N)c5)c(CN(CC)C(CCO)C(=O)O)cc4Cl)c3C)c2C)cc1OCc1cncc(C#N)c1)C(CCO)C(=O)O (stereo not shown) [Example 40800]
20.1 to 90 nM | – | Cc1c(COc2cc(OCc3cncc(C#N)c3)c(CN(C)C(CCO)C(=O)O)cc2Cl)cccc1-c1cccc(COc2cc(OCc3cncc(C#N)c3)c(CN(C)C(CCO)C(=O)O)cc2Cl)c1C (stereo not shown) [Example 40810]
0.04 to 20 nM | – | CCCN(Cc1cc(Cl)c(OCc2cccc(-c3cccc(COc4cc(OCc5cncc(C#N)c5)c(CN(CCC)C(CCO)C(=O)O)cc4Cl)c3C)c2C)cc1OCc1cncc(C#N)c1)C(CCO)C(=O)O (stereo not shown) [Example 40820]
0.04 to 20 nM | – | Cc1c(COc2cc(OCc3cncc(C#N)c3)c(CN(CC3CC3)C(CCO)C(=O)O)cc2Cl)cccc1-c1cccc(COc2cc(OCc3cncc(C#N)c3)c(CN(CC3CC3)C(CCO)C(=O)O)cc2Cl)c1C (stereo not shown) [Example 40830]
0.04 to 20 nM | – | Cc1c(COc2cc(OCc3cncc(C#N)c3)c(CNC(CCO)C(=O)O)cc2Cl)cccc1-c1cccc(COc2cc(OCc3cncc(C#N)c3)c(CN(CC3CC3)C(CCO)C(=O)O)cc2Cl)c1C (stereo not shown) [Example 40840]
0.04 to 20 nM | – | Cc1c(COc2cc(OCc3cncc(C#N)c3)c(CN(CC(C)C)C(CCO)C(=O)O)cc2Cl)cccc1-c1cccc(COc2cc(OCc3cncc(C#N)c3)c(CN(CC(C)C)C(CCO)C(=O)O)cc2Cl)c1C (stereo not shown) [Example 40850]
0.04 to 20 nM | – | Cc1c(COc2cc(OCc3cncc(C#N)c3)c(CN[C@@H](C(=O)O)[C@H](C)O)cc2Cl)cccc1-c1cccc(COc2cc(OCc3cncc(C#N)c3)c(CN[C@@H](C(=O)O)[C@H](C)O)cc2Cl)c1C [Example 40880]
0.04 to 20 nM | – | Cc1c(COc2cc(OCc3cncc(C#N)c3)c(CN[C@@H](C(=O)O)[C@@H](C)O)cc2Cl)cccc1-c1cccc(COc2cc(OCc3cncc(C#N)c3)c(CN[C@@H](C(=O)O)[C@@H](C)O)cc2Cl)c1C [Example 40890]
1000 to 10000 nM | – | COC(=O)[C@H](NCc1cc(Cl)c(OCc2cccc(-c3cccc(COc4cc(OCc5cncc(C#N)c5)c(CN[C@H](C(=O)O)C(=O)OC)cc4Cl)c3C)c2C)cc1OCc1cncc(C#N)c1)C(=O)O [Example 40910]
0.04 to 20 nM | – | CO[C@H](C)[C@H](NCc1cc(Cl)c(OCc2cccc(-c3cccc(COc4cc(OCc5cncc(C#N)c5)c(CN[C@H](C(=O)O)[C@@H](C)OC)cc4Cl)c3C)c2C)cc1OCc1cncc(C#N)c1)C(=O)O [Example 40940]
0.04 to 20 nM | – | Cc1c(COc2cc(OCc3cncc(C#N)c3)c(CN(Cc3cncs3)C(CCO)C(=O)O)cc2Cl)cccc1-c1cccc(COc2cc(OCc3cncc(C#N)c3)c(CN(Cc3cncs3)C(CCO)C(=O)O)cc2Cl)c1C (stereo not shown) [Example 40990]
0.04 to 20 nM | – | Cc1c(COc2cc(OCc3cncc(C#N)c3)c(CN(CCC(C)C)C(CCO)C(=O)O)cc2Cl)cccc1-c1cccc(COc2cc(OCc3cncc(C#N)c3)c(CN(CCC(C)C)C(CCO)C(=O)O)cc2Cl)c1C (stereo not shown) [Example 41010]
0.04 to 20 nM | – | Cc1c(COc2cc(OCc3cncc(C#N)c3)c(CN(CC3CCCO3)C(CCO)C(=O)O)cc2Cl)cccc1-c1cccc(COc2cc(OCc3cncc(C#N)c3)c(CN(CC3CCCO3)C(CCO)C(=O)O)cc2Cl)c1C (stereo not shown) [Example 41020]

More lines, now with the values behind:

Structure (SMILES) | IC50 (IC50 range class) | IC50 (numeric IC50)
Cc1c(COc2cc(OCc3cncc(C#N)c3)c(CNC(Cc3ccccc3)C(=O)O)cc2Cl)cccc1-c1cccc(COc2cc(OCc3cncc(C#N)c3)c(CNC(Cc3ccccc3)C(=O)O)cc2Cl)c1C (stereo not shown) [Example 40480] | 0.04 to 20 nM | –
Cc1c(COc2cc(OCc3cncc(C#N)c3)c(CN3CCC[C@H](C(=O)O)C3)cc2Cl)cccc1-c1cccc(COc2cc(OCc3cncc(C#N)c3)c(CN3CCC[C@H](C(=O)O)C3)cc2Cl)c1C [Example 40490] | 0.04 to 20 nM | –
Cc1c(COc2cc(OCc3cncc(C#N)c3)c(CNC3CCC[C@@H]3C(=O)O)cc2Cl)cccc1-c1cccc(COc2cc(OCc3cncc(C#N)c3)c(CN[C@@H]3CCC[C@@H]3C(=O)O)cc2Cl)c1C (stereo partly shown) [Example 40510] | 0.04 to 20 nM | –
Cc1c(COc2cc(OCc3cncc(C#N)c3)c(CN3CC(C(=O)O)C(c4ccccc4Cl)C3)cc2Cl)cccc1-c1cccc(COc2cc(OCc3cncc(C#N)c3)c(CN3CC(C(=O)O)C(c4ccccc4Cl)C3)cc2Cl)c1C (stereo not shown) [Example 40520] | 90.1 to 1000 nM | –
Cc1c(COc2cc(OCc3cncc(C#N)c3)c(CN[C@H](CC(=O)O)Cc3ccc(I)cc3)cc2Cl)cccc1-c1cccc(COc2cc(OCc3cncc(C#N)c3)c(CN[C@H](CC(=O)O)Cc3ccc(I)cc3)cc2Cl)c1C [Example 40530] | 90.1 to 1000 nM | –
COC(=O)CC(CC(C)C)NCc1cc(Cl)c(OCc2cccc(-c3cccc(COc4cc(OCc5cncc(C#N)c5)c(CNC(CC(=O)OC)CC(C)C)cc4Cl)c3C)c2C)cc1OCc1cncc(C#N)c1 (stereo not shown) [Example 40550] | – | 9220 nM
Cc1c(COc2cc(OCc3cncc(C#N)c3)c(CNC(Cc3ccccc3)C(N)=O)cc2Cl)cccc1-c1cccc(COc2cc(OCc3cncc(C#N)c3)c(CNC(Cc3ccccc3)C(N)=O)cc2Cl)c1C (stereo not shown) [Example 40590] | 90.1 to 1000 nM | –
Cc1c(COc2cc(OCc3cncc(C#N)c3)c(CN[C@@H](Cc3cnc[nH]3)C(N)=O)cc2Cl)cccc1-c1cccc(COc2cc(OCc3cncc(C#N)c3)c(CN[C@@H](Cc3cnc[nH]3)C(N)=O)cc2Cl)c1C [Example 40620] | 20.1 to 90 nM | –
Cc1c(COc2cc(OCc3cncc(C#N)c3)c(CN[C@H](C(N)=O)C3CC3)cc2Cl)cccc1-c1cccc(COc2cc(OCc3cncc(C#N)c3)c(CN[C@H](C(N)=O)C3CC3)cc2Cl)c1C [Example 40670] | 20.1 to 90 nM | –
Cc1c(COc2cc(OCc3cncc(C#N)c3)c(CN3CCC[C@H]3C(N)=O)cc2Cl)cccc1-c1cccc(COc2cc(OCc3cncc(C#N)c3)c(CN3CCC[C@H]3C(N)=O)cc2Cl)c1C [Example 40680] | 90.1 to 1000 nM | –
Cc1c(COc2cc(OCc3cncc(C#N)c3)c(CN3CCC[C@@H]3C(N)=O)cc2Cl)cccc1-c1cccc(COc2cc(OCc3cncc(C#N)c3)c(CN3CCC[C@@H]3C(N)=O)cc2Cl)c1C [Example 40690] | 90.1 to 1000 nM | –
Cc1c(COc2cc(OCc3cncc(C#N)c3)c(CN[C@@H](Cc3c[nH]c4ccccc34)C(=O)O)cc2Cl)cccc1-c1cccc(COc2cc(OCc3cncc(C#N)c3)c(CN[C@@H](Cc3c[nH]c4ccccc34)C(=O)O)cc2Cl)c1C [Example 40700] | 0.04 to 20 nM | –
Cc1c(COc2cc(OCc3cncc(C(N)=O)c3)c(CN[C@@H](CCO)C(=O)O)cc2Cl)cccc1-c1cccc(COc2cc(OCc3cncc(C(N)=O)c3)c(CN[C@@H](CCO)C(=O)O)cc2Cl)c1C [Example 40870] | 0.04 to 20 nM | –
COC(=O)[C@@H](NCc1cc(Cl)c(OCc2cccc(-c3cccc(COc4cc(OCc5cncc(C#N)c5)c(CN[C@H](C(=O)OC)[C@H](C)O)cc4Cl)c3C)c2C)cc1OCc1cncc(C#N)c1)[C@H](C)O [Example 40900] | 1000 to 10000 nM | –
Cc1c(COc2cc(OCc3cncc(C#N)c3)c(CN[C@H](C(=O)O)[C@@H](C)OC(C)(C)C)cc2Cl)cccc1-c1cccc(COc2cc(OCc3cncc(C#N)c3)c(CN[C@H](C(=O)O)[C@@H](C)OC(C)(C)C)cc2Cl)c1C [Example 40930] | 0.04 to 20 nM | –
COC(=O)[C@@H](NCc1cc(Cl)c(OCc2cccc(-c3cccc(COc4cc(OCc5cncc(C#N)c5)c(CN[C@H](C(=O)OC)[C@@H](C)OC(C)(C)C)cc4Cl)c3C)c2C)cc1OCc1cncc(C#N)c1)[C@@H](C)OC(C)(C)C [Example 40950] | – | 168 nM
Cc1c(COc2cc(OCc3cncc(C#N)c3)c(CN[C@@H](C(=O)O)[C@H](C)OCc3ccccc3)cc2Cl)cccc1-c1cccc(COc2cc(OCc3cncc(C#N)c3)c(CN[C@@H](C(=O)O)[C@H](C)OCc3ccccc3)cc2Cl)c1C [Example 40960] | 20.1 to 90 nM | –
